{
  "source": "patent US20250345440A1",
  "about": "“METAL-ORGANIC FRAMEWORK MATERIALS AND USES OF THE METAL-ORGANIC FRAMEWORK MATERIALS” (MOF Science, LLC, priority 2024, published 2025)",
  "test": "Second study: NAD in tissues, oral (pegylated)NAD-Mg-GA vs injectable NAD",
  "format": "in vivo",
  "conditions": "group 2 (IP injectable NAD) vs group 1 (oral (pegylated)NAD-Mg-GA), healthy rats",
  "data": [
    {"smiles": "NC(=O)c1ccc[n+]([C@@H]2O[C@H](COP(=O)([O-])OP(=O)(O)OC[C@H]3O[C@@H](n4cnc5c(N)ncnc54)[C@H](O)[C@@H]3O)[C@@H](O)[C@H]2O)c1", "note": "[injectable NAD, Nicotinamide Adenine Dinucleotide]", "values": [
      {"measurement": "More NAD levels in the heart compared to group 1", "value": 11, "unit": "%"}
    ]}
  ]
}
